Laboratory results taken from paper PMC9688798, “Dual-Wavelength Fluorescence Polarization Immunoassay for Simultaneous Detection of Sulfonamides and Antibacterial Synergists in Milk” (Biosensors, 2022).
In brackets after ≈: the same amount, converted by molar mass. Each block holds one molecule with its values, some of them ahead of it.

Assays:
mAb 10E6 [1] = assay: DWFPIA for SAs (tracer SADMPM-HDF, λex 480 nm/λem 535 nm); format: binding; conditions: for IC50: 480 nm/535 nm
Method: (§1) For single format FPIA, 70 μL/well of a standard analyte solution, 70 μL/well of tracer, and 70 μL/well mAb were added to the 96-well low-adsorption microplate. After incubation for 2 min in the dark, FP values were measured at λex 480 nm and λem 535 nm for the SAs tracers (SADMPM-EDF, SADMPM-BDF, and SADMPM-HDF) or at λex 620 nm and λem 688 nm for the ASGs tracers (HaptenA-DSCA, HaptenA-DSCH, and HaptenA-AF647). For DWFPIA detection, 70 μL/well standard cocktail solutions were mixed with 70 μL/well of tracer cocktail solutions in the working dilution and 70 μL/well of mAb cocktail solutions in the working dilution. After incubation for 2 min in the dark, the corresponding signals of the tracers were collected simultaneously.
(§2) The procedure to develop the standard curves of DWFPIA for the simultaneous detection of SMZ and TMP was follows: the standard cocktail solutions were prepared by mixing an equal quantity of the standard of SMZ and TMP. Subsequently, the optimum two tracers for each mAbs were added with equal volumes, and then mixed with the two mAbs against SMZ and TMP. The other steps followed the above protocol for FPIA. […] Y = (A − D)/[1 + (X/C) ^B] + D(1) where Y represents the FP value for the corresponding different concentrations of the standard (analyte); A and D represent the asymptotic maximum and minimum of the FP values, respectively; and B is the slope of the curve at the inflection point. C is the IC50 value that defines the standard concentration of SMZ or TMP (analyte) at 50% tracer binding, and X is SMZ/TMP in various concentrations. Furthermore, IC20–IC80 was calculated as the detectable range of the DWFPIA. According to the following equation, the cross reactivity (CR) of the DWFPIA was acquired as follows:CR= (IC50 of SMZ or TMP)/(IC50 of analyte compound) × 100%(2)
(§3) To obtain a sensitive FPIA, the effects of some physicochemical conditions on DWFPIA were evaluated by comparing the δmP/IC50 ratios under various conditions, including pH and organic solvents. Based on the optimal antibody–tracer pairs, pH values of 6.0, 7.0, 8.0, and 9.0 were tested and the other parameters of the assay remain unchanged. To clarify the effects of organic solvents on the development of DWFPIA, various concentrations of methanol and acetonitrile were tested, that is, 0%, 2.5%, 5%, 10%, 20%, and 30% (v/v) for methanol and 0%, 2.5%, 5%, 10%, and 20% (v/v) for acetonitrile. SMZ and TMP were used as the reference analyte in DWFPIA optimization to construct standard curves, seperately.

mAb 10E6 [2] = assay: FPIA tracer-antibody binding, antibody dilution and SMZ competition with mAb 10E6; conditions: λex/λem 480/535 nm, working concentration
Method: as §1, with “After incubation for 2 min in the dark, the corresponding signals of the tracers were collected simultaneously.” left out
In DWFPIA, we mainly focused on three analytical parameters to select the optimum antibody–tracer pairs, including the half-maximal inhibitory concentration (IC50), the detection window (δmP = mPmax − mPmin), and the titer of the mAbs. […] The IC50 of DWFPIA based on the antibody–tracer pairs was assessed according to standard curves, as described in Section 2.3.3. δmP was the difference between the observed maximum FP value of the tracer bound to a saturating amount of antibody (mPmax) and the observed minimum FP value of the free tracer (mPmin). […] In addition, the binding abilities of the tracers and mAbs were assessed. […] According to the antibody dilution curve, the titer of the mAbs utilized for each tracer that satisfied the δmP criterion was calculated. […]

[3] = tested on: cocktail mAbs of 10E6 and 9C9; assay: Nonspecific binding analysis with cocktail mAbs; conditions: λex/λem 480/535 nm, working concentration
Method: The detection system of DWFPIA consists of two distinct fluorescence signals; moreover, the interference between the short-wavelength fluorescein (EDF/BDF/HDF) and the long-wavelength fluorescein (DSCA/DSCH/AF647) could be ignored, according to our previous studies. Furthermore, the nonspecific binding was analyzed by comparing the FP changes of each tracer (or the tracer cocktail) upon the addition of the free, specific, non-specific, and cocktail mAbs at working concentrations. […] At 620 nm/688 nm, the binding of the tracer HaptenA-DSCA and its corresponding antibody mAb 9C9 was not affected by the presence of non-specific mAb 10E6, as shown in Figure 3A.

mAb 9C9 = assay: DWFPIA for ASGs (tracer HaptenA-DSCA, λex 620 nm/λem 688 nm); format: binding
Method: as §1, §2, §3

[4] = final concentration of 10% acetonitrile

IC50 (mAb 10E6 [1]; analyte in mixed format (standard cocktail)): 4.67 ng/mL (≈ 16.8 nM) | IC50 (mAb 10E6 [1]; analyte in single format, tracer and mAb cocktail): 4.55 ng/mL (≈ 16.3 nM)
Compound: Cc1cc(C)nc(NS(=O)(=O)c2ccc(N)cc2)n1 [SMZ, Sulfamethazine]
δmP (mAb 10E6 [1]; 10% final acetonitrile concentration): < 80 mP | CRs (mAb 10E6 [1]; cross reactivity = IC50 of SMZ / IC50 of analyte × 100%): 100%

Fluorescence Polarization, tracer and mAb 10E6 (mAb 10E6 [2]): 178.6 mP | Fluorescence Polarization, tracer and cocktail mAbs [3]: 178.8 mP
Compound: Cc1nc(NS(=O)(=O)c2ccc(N)cc2)nc(C)c1CCCCC(=O)NCCCCCCNC(=S)Nc1ccc2c(c1)C(=O)OC21c2ccc(O)cc2Oc2cc(O)ccc21 [SADMPM-HDF]

IC50 (mAb 9C9; analyte in mixed format (standard cocktail), 620 nm/688 nm): 1.12 ng/mL (≈ 3.86 nM) | IC50 (mAb 9C9; analyte in single format, tracer and mAb cocktail, 620 nm/688 nm): 1.06 ng/mL (≈ 3.65 nM) | IC50 (mAb 9C9; [4]): 1.7 ng/mL (≈ 5.86 nM) | IC50 (mAb 9C9; without acetonitrile (start of the change)): 1.1 ng/mL (≈ 3.79 nM)
Compound: COc1cc(Cc2cnc(N)nc2N)cc(OC)c1OC [TMP, Trimethoprim]
CRs (mAb 9C9; cross reactivity = IC50 of TMP / IC50 of analyte × 100%): 100% | δmP (mAb 9C9; [4]): greater than 80 mP
